Measurements published in patent publication US20080206374A1 (priority 2003, published 2008).
Structures can show the parent of a compound that is named as a salt. Marks after values point to notes of the source that are not given here.

What was measured:
[1] = test system: normally anaesthetized dogs; assay: cardiac hemodynamics and cardiac oxygen consumption of dogs; assay type: in vivo
Protocol: The experimental medicaments were prepared to the same volume (50 ml) with physiological saline, and injected through femoral vein at a speed of 5 ml/min by the computer minim syringe pump (Type AJ-5803, Shanghai).
The animals were anaesthetized intravenously with pentobarbital sodium (30 mg/kg, i.v), and connected with an electric respirator after tracheal intubation. The chests were opened in the position of the 4th left rib to expose the heart. The pericardium was cut to make a pericardial bed. The laevorotatory branch of coronary artery and the root of aorta were separated and a probe of an electromagnetic flowmeter (Type MF-1100) was placed in to measure the blood flow of coronary artery and cardiac output. The tip of left ventricle was intubated and connected with a pressure energy transducer (MPU-0.5A). The internal pressure of left ventricle was measured with a carrier amplifier (AG-601G), and the maximal ascending rate (dp/dtmax) of the internal pressure of left ventricle was measured with a differentiator (ED-601G). The animals were intubated through the external jugular vein into the coronary vein sinus and also intubated through the carotid. The blood oxygen contents of coronary vein sinus and artery were measured using a blood oxygen instrument (Type AVL912, Swiss) to calculate the myocardial oxygen consumption. Then the femoral artery was intubated to measure the blood pressure of artery. And then with the Standard Limb Lead II of electrocardiogram, the heart rate and the related parameters of electrocardiogram were calculated. With the formula, other indexes of hemodynamics were calculated: cardiac stroke output, oxygen consumption index, cardiac index, resistance of coronary artery, total peripheral resistance and oxygen utility, etc. All the above-mentioned indexes were recorded by a multirunning physiological recorder (Type RM-6000, Japan Photoelectricity) synchronously.
After the operation and the observed indexes being stable, the values before medicament were recorded, and the experimental medicaments were then administered. The values were recorded at 5 minutes of the middle of the process of administration, immediately after, and 1, 3, 5, 10, 15, 30, and 60 minutes after administered medicaments. All the measured indexes and derived parameters were processed statistically. The self-comparisons of the actual measurement values within different time periods after and before administered medicaments were made. Using the t-Test, the changed rate percentages were compared to show the significance between the groups.

[2] = test system: experimental acute myocardial ischemia of dogs; assay: experimental acute myocardial ischemia and myocardial infarction of anesthetized dogs (coronary artery ligature); assay type: in vivo
Protocol: The experimental medicaments were prepared with physiological saline to the same volume (50 ml), and injected through femoral vein at a speed of 5 ml/min with the computer minim syringe pump (Type AJ-5803, Shanghai).
The animals were anaesthetized with pentobarbital sodium (30 mg/kg, i.v), and connected with an electric respirator after tracheal intubation. The chest was opened in the position of the 4th left rib to expose the heart. The pericardium was cut out to make a pericardial bed. The laevorotatory branch of coronary artery was separated and a probe of an electromagnetic flowmeter (Type MF-1100) was placed in to measure the blood flow of coronary artery. The middle section of anterior descending branch of coronary artery was separated and a thread was put through for ligature to make a model of experimental acute myocardium myocardial ischemia. A multipoint fixed epicardium electrode was sewed up and connected with a multirunning physiological recorder (Type RM-6100, Japan Photoelectricity) to display and record the electrocardiogram of epicardium^<1>. The coronary artery was ligated for 15 minutes and recorded as a control value before medicaments administration. The experimental medicaments or physiological saline was injected through the femoral vein. At […] 15, 30, 45, 60, 90, 120, and 180 minutes after medicament administration, 30 measuring points of the epicardium electrocardiogram were recorded. The rising S-T section that is more than 2 mv was taken as a judgment standard to calculate the degree of myocardial ischemia (total mv number of the rising S-T section Σ-ST) and the range of myocardial ischemia (total point number of the rising S-T section N-ST). After intubation through the […] into the coronary vein sinus, the blood oxygen content of coronary vein was measured by a blood oxygen instrument (Type AVL912, Swiss) while the blood samples were taken before ischemia, ischemia 15 min (before administration), at 15, 30, 60, 120, and 180 minutes after medicament administration. Then the animal was intubated into the carotid to measure the blood oxygen content of artery. It was calculated together with the blood flow of coronary artery to measure the myocardial oxygen consumption:
Myocardial oxygen consumption=(blood oxygen content of artery−blood oxygen content of coronary vein)×blood flow of coronary artery/100.
The blood samples were taken at the above-mentioned time points, and then serum creatine phosphate kinase (CK) and lactic dehydrogenase (LDH) were measured with a full-automatic biochemical analyzer (Type RA-1000, USA). And ET, TXB2 and 6-Keto-PGF1 were measured with the Radioimmuno-method and with a full-automatic γ counter (Type FT-630G, Beijing).
When recording was finished at 180 minutes after medicament administration, the heart was taken out immediately, washed with physiological saline and weighed as a whole. Under the ligature line of the heart, the ventricle was cut evenly into 5 pieces parallel to the coronary sulcus. Then the pieces were placed in the N-BT solution and stained at the room temperature for 15 minutes. The infarcted area (N-BT non-stained area) and the non-infarcted area (N-BT stained area) on the lateral sides of each piece of myocardium were measured with a Multimedia Color Pathological Image Analyzing System (Type MPIAS-500, Beijing) The area of each piece of myocardium, the total area of ventricle and the area of the infarcted section were calculated. The percentage of the infarcted area over the ventricle and that over total heart were calculated.
The experimental result was processed statistically and its significance was tested with t-Test.

[3] = test system: acute lung injury caused by the lipopolysaccharide; assay: LPS acute lung injury (ALI) model; assay type: in vivo, Wistar rats
Protocol: And each of the modeling group, the LPS+DEX Group and LPS+SQ Group was again divided into 3 time phasing groups, that is, a one-hour group, a two-hour group, and a four-hour group. There are 10 groups in total, 6 […] per group in this experiment.
The 18 rats of the LPS+DEX Group were injected abdominally with 50 mg/kg Dexamethasone 2 hours before modeling. The 18 rats of the LPS+NS Group were injected with physiological saline 2 hours before modeling. Except for the normal Control group, all the three above-mentioned groups were injected with LPS (4 mg/kg) in the caudal vein.
After all the animals being anaesthetized with chloral hydrate through abdominal injection at the determined time phasing point, 2 ml blood was sampled from the carotid, and centrifuged at 800 gr/min for 8 minutes. The supernatant was extracted and placed at −20° C. in a refrigerator for future usage. The chest was opened and the lower lobes of the right lung were sampled They were placed in the EP tubes treated with DEPC solution and immediately put at −70° C. in a refrigerator for the total RNA extraction. The upper lobes of the right lung were sampled and dipped in 10% formaldehyde solution to fix. The left lungs were taken for the ratio of wet/dry weight measurement.
4. At the corresponding timing point, the animal lung tissues were taken and observed with human eyes and under the microscope using HE Staining Method. The ratio of tissues wetdry weight was also measured.

[4] = test system: myocardial ischemia reperfusion injury of rats; assay: myocardial infarction caused by ischemia reperfusion; assay type: in vivo; conditions: 1.0 mg/kg
Protocol: The medicaments were diluted to desired concentration with physiological saline. The volume of administered medicament was 4 ml/kg. And the medicaments were given through the left femoral vein.
The animals were anaesthetized by pentobarbital sodium (45 mg/kg) through abdominal cavity and fixed in backstroke position. […] The tracheas were cut open, the trachea cannulas were inserted, and tracheas were connected with a respirometer (Type SC-3, Shanghai) for artificial respiration (32/min, with a respiration ratio of 1:3). The 3rd-5th ribs were cut off after opening the chest, and the pericardiums were opened to expose the heart. A suture (suture No. 0) was put through the root of left anterior descending branch of coronary artery for ligature. After the suture being put through stably for 10 minutes, a plastic concave pipe was placed parallel with the blood vessel, which was then ligated (eliminating the ones without changes of ST and T-wave). The experimental medicaments were administered. After 40 minutes, the ligature suture was cut off along the groove to trigger the reperfusion of the anterior descending branch. The chest was then seamed and independent respiration was recovered.
The bloode samples were taken from the ventral aorta to measure the serum SOD and MDA contents after 2 hours of the ligature. The heart was sliced into 5 pieces under heart ligature and was stained by N-BT. Using a Multimedia Pathological Color Image Analyzing System (Type MPIAS-500, Beijing), the areas of the normal myocardiums and the myocardial infraction were calculated. The degree of myocardial infarction was observed. And the experimental results were statistically analyzed (t-Test).

[5] = influence upon the lethal effect of MTX; assay type: in vivo, mice; conditions: MTX 22 mg/kg i.p.; composition 0.2 ml i.p. daily for eight days
Protocol: 2) The mice were divided into two groups and inoculated the tumor cells according to the method above. […] On the 4th day of the administration, the mice were inoculated tumor cell and intraperitoneally injected 22 mg/kg aqueous solution of MTX after 6 hours of inoculation. Within 10 days after MTX injection, the death rate of animals was observed and the survival rates of the two groups of animals were compared.

[6] = LPS 4 mg/kg, DEX 50 mg/kg 2 hours before, SQ 2 ml daily 1 week before
[7] = Herbesser Injection, femoral vein
[8] = serum after 2 hours of the ligature
[9] = Dose/kg 0.5 mg, femoral vein, 180 minutes, N-BT staining

Structure (SMILES): CCCCC[C@H](O)/C=C/[C@@H]1[C@@H](CC(=O)CCCCC(=O)O)[C@@H](O)C[C@H]1O [Composition 6-Keto-PGF1, 6-keto-prostaglandin F1α]
- cardiac stroke output (in words) ([1]; dog, in vivo): markedly increased the cardiac stroke output
- resistance of outer periphery (in words) ([1]; dog, in vivo): reduced the resistance of outer periphery
- myocardial oxygen consumption (in words) ([2]; 15 minutes after given): obviously reduced

Structure (SMILES): C[C@@H]1C[C@H]2[C@@H]3CCC4=CC(=O)C=C[C@]4(C)[C@@]3(F)[C@@H](O)C[C@]2(C)[C@@]1(O)C(=O)CO [LPS + DEX, Dexamethasone]
- Pathological Classification of lung injury: cases Light, 1-hour ([3]; LPS 4 mg/kg caudal vein, DEX 50 mg/kg abdominally 2 hours before, SQ 2 ml abdominally daily 1 week before): 6
- Lung W/D Ratio, 1 h [3, 6]: 4.82 ± 0.23*Δ
- Lung W/D Ratio, 2 h [3, 6]: 4.59 ± 0.19*Δ#
- Lung W/D Ratio, 4 h [3, 6]: 4.57 ± 0.10*Δ#
- Pathological Classification of lung injury: cases Light, 2-hour [3, 6]: 4
- Pathological Classification of lung injury: cases Light, 4-hour [3, 6]: 6
- Pathological Classification of lung injury: cases Middle, 1-hour [3, 6]: 0
- Pathological Classification of lung injury: cases Middle, 2-hour [3, 6]: 2
- Pathological Classification of lung injury: cases Middle, 4-hour [3, 6]: 0
- Pathological Classification of lung injury: cases Severe, 1-hour [3, 6]: 0
- Pathological Classification of lung injury: cases Severe, 2-hour [3, 6]: 0
- Pathological Classification of lung injury: cases Severe, 4-hour [3, 6]: 0
- symptoms (tachypnea, lips cyanosis, mental wilting) after LPS (in words) ([3]; compared with LPS+NS Group): relatively mild
- general observation of lung tissues (in words) ([3]; same time phasing points, in comparison to Group LPS+NS): mitigated to different extent

Structure (SMILES): COc1ccc([C@@H]2Sc3ccccc3N(CCN(C)C)C(=O)[C@@H]2OC(C)=O)cc1 [Herbesser, Diltiazem Hydrochloride]
- blood flow and resistance of coronary artery (in words) ([1]; Herbesser Injection): markedly increased the blood flow and the resistance of coronary artery
- arterial blood pressure (in words) [1, 7]: obvious effect of reducing blood pressure
- heart rate (in words) [1, 7]: slowing down heart rate
- Infarcted Area/heart ([4]; left femoral vein): 16.6 ± 2.6
- Infarcted Area/ventricle % ([4]; left femoral vein): 21.6 ± 4.3 %
- The area of myocardial infraction ([4]; left femoral vein): 61.72 ± 9.68** mm^2
- Weight of Infarcted Area ([4]; left femoral vein): 0.154 ± 0.027 g
- MDA content of blood serum [4, 8]: 2.35 ± 0.07 µmol/L
- SOD content of blood serum [4, 8]: 660.9 ± 159.7 ng/mL
- Infarcted Area [2, 9]: 281.30 ± 159.9*** mm^2
- Infarcted Area/heart [2, 9]: 2.27 ± 0.73
- Infarcted Area/ventricle [2, 9]: 7.44 ± 2.61
- increasing activity of serum CK and LDH caused by myocardial ischemia and infarction (in words) ([2]; Herbesser, composition 2.4 g crude drug/kg, P<0.05 vs physiological saline): significantly inhibited
- blood flow of coronary artery (in words) ([2]; after ligature of the coronary artery): evident effect of increasing blood flow of coronary artery
- ET activity in plasma caused by myocardial ischemia and infarction (in words) ([2]; dog, in vivo): obvious inhibiting effect on the ET activity
- blood oxygen content of vein sinus (in words) ([2]; no statistical meaning): effect trend of increasing blood oxygen content of vein sinus

Structure (SMILES): CN(Cc1cnc2nc(N)nc(N)c2n1)c1ccc(C(=O)N[C@@H](CCC(=O)O)C(=O)O)cc1 [MTX, Methotrexate]
- Number of Dead Animal after administered MTX, 4th day [5]: 1
- Number of Dead Animal after administered MTX, 5th day [5]: 7
- Number of Dead Animal after administered MTX, 6th day [5]: 3
- Number of Dead Animal after administered MTX, 7th day [5]: 6
- Survival Number after 10 days [5]: 4
- Survival Rate % after 10 days [5]: 19.04%
